PubChem BioAssay (NCI)
Where “and” joins values, the source holds several entries; their conditions need not be identical. Equal entries are not always repeated.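 96-well plates; 48 h exposure; 5 concentrations. Endpoints by linear interpolation between flanking doses. Not reached: highest tested concentration assigned. GI50 marks 50% less growth. Definition used: TGI = concentration required for complete inhibition of growth.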

Experiments:
Test in all cases: NCI-60 cell line screen, 48 h
NCI/ADR-RES ovarian = test system: NCI/ADR-RES ovarian
TK-10 renal = test system: TK-10 renal
SF-295 CNS = test system: SF-295 CNS
NCI-H522 lung = test system: NCI-H522 lung
SW-620 colon = test system: SW-620 colon
IGROV1 ovarian = test system: IGROV1 ovarian
OVCAR-5 ovarian = test system: OVCAR-5 ovarian
RXF 393 renal = test system: RXF 393 renal
DU-145 prostate = test system: DU-145 prostate
HL-60(TB) leukemia = test system: HL-60(TB) leukemia

Compound | TGI (NCI/ADR-RES ovarian) | TGI (TK-10 renal) | TGI (SF-295 CNS) | TGI (NCI-H522 lung) | TGI (SW-620 colon) | TGI (IGROV1 ovarian) | TGI (OVCAR-5 ovarian) | TGI (RXF 393 renal) | TGI (DU-145 prostate) | TGI (HL-60(TB) leukemia) | GI50 (NCI/ADR-RES ovarian) | GI50 (SF-295 CNS) | GI50 (NCI-H522 lung) | GI50 (SW-620 colon) | GI50 (IGROV1 ovarian) | GI50 (OVCAR-5 ovarian) | GI50 (RXF 393 renal) | GI50 (HL-60(TB) leukemia)
COc1ccc2c(c1)c1nn(CCN3CCCCC3)c3ccc4c(=O)n(CCN(C)C)c(=O)n2c4c13 | 1.91 µM | 0.44 µM | < 0.0192 µM | < 0.0341 µM | 0.0751 µM | < 0.0174 µM | 0.126 µM | < 0.0374 µM | 0.132 µM | 0.511 µM | – | – | – | – | – | – | – | –
COc1cc(OC2OC(COC(=O)c3cc(O)c(O)c(O)c3)C(O)C(O)C2O)ccc1O (stereo not drawn) | > 100 µM | > 100 µM | > 100 µM | > 100 µM | > 100 µM | > 100 µM | > 100 µM | > 100 µM | > 100 µM | > 100 µM | – | – | – | – | – | – | – | –
CCOC(=O)C(NC(=O)CC)(Nc1ccc(F)c(Cl)c1)C(F)(F)F (stereo not drawn) | > 100 µM | > 100 µM | > 100 µM | > 100 µM | > 100 µM | > 100 µM | > 100 µM | > 100 µM | > 100 µM | > 100 µM | – | – | – | – | – | – | – | –
O=C1CS[C@@](CC(c2ccc(Cl)cc2)c2ccc(Cl)cc2)(c2ccc(Cl)cc2)N1 | > 100 µM | > 100 µM | 47.5 µM | > 100 µM | > 100 µM | > 100 µM | > 100 µM | 17.6 µM | > 100 µM | 28.4 µM | – | – | – | – | – | – | – | –
CCOc1ccc(/C=C2\NC(=S)N(/C=C3\C(=O)Oc4ccccc4C3=O)C2=O)cc1 | 45.7 µM | 49.6 µM | 49.8 µM | 51.2 µM | > 100 µM | 61.7 µM | > 100 µM | 33.6 µM | 57.7 µM | 33.7 µM | – | – | – | – | – | – | – | –
CCCC(=O)NC(Nc1ccc(F)cc1)(C(F)(F)F)C(F)(F)F | > 100 µM | > 100 µM | > 100 µM | > 100 µM | > 100 µM | > 100 µM | > 100 µM | > 100 µM | > 100 µM | > 100 µM | – | – | – | – | – | – | – | –
CNC(=S)NNc1ncnc2c1ncn2-c1ccc(C)cc1 | > 100 µM | > 100 µM | > 100 µM | > 100 µM | > 100 µM | > 100 µM | > 100 µM | > 100 µM | > 100 µM | > 100 µM | – | – | – | – | – | – | – | –
COc1c2ccsc2c(OC)c2ccsc12 | > 100 µM | > 100 µM | > 100 µM | > 100 µM | > 100 µM | > 100 µM | > 100 µM | > 100 µM | > 100 µM | > 100 µM | – | – | – | – | – | – | – | –
O=[N+]([O-])c1cccc(Cl)c1Oc1ccc(S(=O)(=O)/N=C(\NO)Nc2ccc(Cl)cc2)cc1 | 50.7 µM | 30.4 µM | 34.4 µM | 20.2 µM | 30.3 µM | 35.6 µM | 32.8 µM | 30.9 µM | 30 µM | 16.5 µM | – | – | – | – | – | – | – | –
Cc1ccc2c(C(=O)c3c(C)n(CCN4CCOCC4)c4ccccc34)cccc2c1 | 43.1 µM | 55.6 µM | 37.1 µM | 29.3 µM | 16.5 µM | > 100 µM | 96.6 µM | 54.6 µM | 94.3 µM | 10.4 µM | – | – | – | – | – | – | – | –
Cc1c(O)c(OC2OC(CO)C(O)C(O)C2O)cc2c1C=C[C@@H]1[C@@]2(C)C(=O)C[C@]2(C)[C@@H]([C@@](C)(O)C(=O)CCC(C)(C)O)[C@H](O)C[C@@]12C (stereo partly drawn) | 69.4 µM | 33.4 µM | 36 µM | 67.2 µM | 79.9 µM | 44.3 µM | 61.2 µM | 38.1 µM | 56.6 µM | > 100 µM | – | – | – | – | – | – | – | –
Cc1cc(N(CCC#N)CCC#N)ccc1/C=C1\SC(=S)NC1=O | > 100 µM | > 100 µM | > 100 µM | > 100 µM | > 100 µM | > 100 µM | > 100 µM | 99.8 µM | > 100 µM | > 100 µM | – | – | – | – | – | – | – | –
CN(C)CC1CCC/C(=C\c2ccc(OC(=O)/C=C/c3ccc(Cl)c(Cl)c3)cc2)C1=O (stereo not drawn) | 18.5 µM | 5.96 µM | 26.2 µM | 8.28 µM | 7.86 µM | 3.15 µM | > 65.3 µM | 4.41 µM | > 93.3 µM | 3.45 µM | – | – | – | – | – | – | – | –
COc1ccc([C@]23CCN4COC[C@@H]([C@H]42)C2(CC3)OCC(C)(C)CO2)cc1OC | > 100 µM | > 100 µM | > 100 µM | > 100 µM | > 100 µM | > 100 µM | > 100 µM | > 100 µM | > 100 µM | > 100 µM | – | – | – | – | – | – | – | –
COC(=O)c1cccc(OC)c1C#Cc1c(OC)cccc1OC | > 100 µM | > 100 µM | > 100 µM | > 100 µM | > 100 µM | > 100 µM | > 100 µM | > 100 µM | > 100 µM | > 100 µM | – | – | – | – | – | – | – | –
CCN(CC)CCOC(=O)Cc1cccc2c(=O)cc(-c3ccccc3)oc12 | 62.5 µM and > 283 µM | 52.5 µM | 62.5 µM and > 141 µM | 62.5 µM and > 154 µM | 62.5 µM and > 251 µM | 62.5 µM and > 216 µM | 62.5 µM and > 197 µM | 58.7 µM and > 144 µM | 54.6 µM | 44.6 µM | 123 µM | 19.2 µM | 72.8 µM | 123 µM | 82.9 µM | 137 µM | 52.6 µM | 3.86 µM
COC(=O)NC(Cc1ccccc1)NC(C)=O (stereo not drawn) | > 100 µM | > 100 µM | > 100 µM | > 100 µM | > 100 µM | > 100 µM | > 100 µM | > 100 µM | > 100 µM | > 100 µM | – | – | – | – | – | – | – | –
Cc1ccc(S(=O)(=O)n2ccc(-c3ccc4ccn(S(=O)(=O)c5ccc(C)cc5)c4c3)c2)cc1 | > 100 µM | > 100 µM | > 100 µM | > 100 µM | > 100 µM | > 100 µM | > 100 µM | 39.3 µM | > 100 µM | > 100 µM | – | – | – | – | – | – | – | –
N#CC[N+]1(Cc2ccccn2)CCCC1 | > 100 µM | > 100 µM | > 100 µM | > 100 µM | > 100 µM | > 100 µM | > 100 µM | > 100 µM | > 100 µM | > 100 µM | – | – | – | – | – | – | – | –
N=c1oc2ccccc2cc1-c1nc2ccccc2c(=O)[nH]1 | > 100 µM | > 100 µM | > 100 µM | > 100 µM | > 100 µM | > 100 µM | > 100 µM | > 100 µM | > 100 µM | > 100 µM | – | – | – | – | – | – | – | –
COC(=O)C1=CON2C3CC4CC(C3)CC(C4)C12C (stereo not drawn) | > 100 µM | > 100 µM | > 100 µM | > 100 µM | > 100 µM | > 100 µM | > 100 µM | > 100 µM | > 100 µM | > 100 µM | – | – | – | – | – | – | – | –
O=C(O)CNC(=O)c1ccc2cc(C(=O)N3CC(CCl)c4ccc([N+](=O)[O-])cc43)[nH]c2c1 (stereo not drawn) | > 100 µM | > 100 µM | > 100 µM | > 100 µM | > 100 µM | > 100 µM | > 100 µM | > 100 µM | > 100 µM | > 100 µM | – | – | – | – | – | – | – | –
